The values that follow are results of earlier work, collected in US20050187278A1, “Treatment or prevention of vascular disorders with Cox-2 inhibitors in combination with cyclic AMP-specific phosphodiesterase inhibitors” (Pharmacia Corporation, priority 2003, published 2005).

The subject of series [1] is PDE4.
For the next series, the system named is PDE3. As to conditions: first of two values given 'respectively' for PDE3 and 4.
The subject of series [2] is PDE4. To be noted: second of two values given 'respectively' for PDE3 and 4.

As for `COc1ccc([C@@H]2CNC(=O)C2)cc1OC1CCCC1` [Compound C6, (4R)-4-[3-(Cyclopentyloxy)-4-methoxyphenyl]pyrrolidin-2-one], in the series on PDE4 [1] (PDE4 inhibitor rolipram, R-(-) versus S-(+) enantiomer), the “fold more potent than the S-(+) enantiomer” value was “rolipram; 2-10-fold”.

Turning to `COc1ccc([C@H]2CNC(=O)C2)cc1OC1CCCC1` [Compound C7, (4S)-4-[3-(Cyclopentyloxy)-4-methoxyphenyl]pyrrolidin-2-one], the “activity relative to the other enantiomer of the PDE4 inhibitor rolipram” value in the series on PDE4 [1] (in words) is “Less active”.

Usually IC50 stands for the concentration needed to halve the response being measured. In the case of `COc1cc(-c2ccc(=O)[nH]n2)ccc1OC(F)F` [Compound C8, 6-[4-(Difluoromethoxy)-3-methoxyphenyl]-3(2H)-pyridazinone], the figures for the IC50 with PDE3 and with PDE4 [2] were 500 nM and 800 nM, respectively.
